Holding throughout (assay type): biochemical
The subject of one experiment is Human LDLs. Put plainly: Oxidation of human LDL in the presence of cupric ion (fluorescence), antioxidant effect. Particulars: human LDL 120 μg/ml, 100 μM CuCl2; difference of fluorescence readings at 2 h and 24 h, 37° C; from 3 product concentrations. The procedure: Human LDLs dissolved in aqueous solution in the presence of cupric ion become spontaneously oxidized on their protein component, apolipoprotein B. This oxidation makes the particle fluorescent, which is exploited to measure a pharmacological effect.
The reactions and measurements are carried out in black 96-well plates, 10 μl of a solution of the test product dissolved in dimethyl sulfoxide are first mixed with 170 μl of a solution of human LDL at 120 μg/ml and 20 μl of 100 μM CuCl2. After stirring, the mixture is left to incubate for 2 hours at 37° C., and a first fluorescence reading is taken (excitation at 360 nm, reading at 460 nm). The mixture is then left to incubate for a further 22 hours, to take a second reading under the same conditions. The difference between the two values obtained is the measurement of the oxidation of the LDLs in solution. This difference is proportionately smaller the greater the antioxidant power of the test product. Probucol is used as reference product at 10 μM.
The concentrations which inhibit the oxidation by 50% (IC50) are produced from 3 product concentrations.

The nature of experiment [1]: Spontaneous nitric oxide release: nitrites+nitrates titrated by colorimetry (Griess reagent, nitrate reductase). Particulars: test product final concentration 150 μM; 4 hours at 37° C; pH 7.5 PBS buffer; optical density at 540 nm. The procedure: A solution of a compound of the invention spontaneously releases nitric oxide. The nitrite ions resulting therefrom are titrated by colorimetry by means of a specific reagent (Griess). To take account of any release of nitrate ions in addition to the nitrite ions, bacterial nitrate reductase is added to the reaction medium to allow the nitrate ions formed to be reduced.
The reactions and measurements are carried out in transparent 96-well plates. The test products are dissolved at the time of use to a concentration of 3 mM in dimethyl sulfoxide. 95 μl of a reagent containing nitrate reductase (0.18U/ml in 100 mM pH 7.5 PBS buffer, 210 μM β-NADPH, 5 μM FAD) and 5 μl of a solution of the test product (final concentration of 150 μM) are then added to each well. After stirring, the mixture is left to incubate for 4 hours at 37° C. The reaction is then quenched by addition of 100 μl of the Griess reagent (Sigma G4410). The reagent is allowed to act for 5 minutes at room temperature and the optical density is then read at 540. nm. This value is proportional to the concentration of nitrites+nitrates in the medium. A calibration range is made for each plate using NaNO2.
The results are expressed as […] (μM) of nitrites+nitrates released, in Table 5 below.
On the technique in general: Griess reagent forms a coloured azo dye with nitrite.

Experiment [2] relates to human low molecular weight lipoproteins. Put plainly: Prevention of cupric-ion oxidation of human low molecular weight lipoproteins (apoprotein B fluorescence), compounds of the formula II. The following applies: lipoproteins oxidized with cupric ions for 24 hours at 37° C, fluorescence excitation 360 nm, emission 460 nm. The procedure:
In the test carried out, the human low molecular weight lipoproteins are oxidized with cupric ions for 24 hours at 37° C. The B apoprotein bome by these lipoproteins becomes fluorescent on oxidation (excitation at 360 nm, emission at 460 nm). In the presence of the compounds of the formula II, a decrease in fluorescence is noted, which reflects the antioxidant power of the compounds of the formula II. The results are expressed in the form of a 50% inhibitory concentration (IC50).

The values that follow come from US20040063783A1, “Nitroso diphenylamine derivatives” (priority 2003, published 2004).

The term IC50 denotes the concentration needed to halve the response being measured.

The structures appear in SMILES notation.

With `CC(C)(Sc1cc(C(C)(C)C)c(O)c(C(C)(C)C)c1)Sc1cc(C(C)(C)C)c(O)c(C(C)(C)C)c1` [Probucol, reference compound], the concentration for half-maximal inhibition (IC50) with Human LDLs amounted to 6.4 µM.

As for `O=NN(c1ccccc1)c1ccc(NS(=O)(=O)c2ccccc2)cc1` [Example 45], the “Nitrates + nitrites” value in experiment [1] worked out at 62 µM. Also, the IC50 in the experiment with Human LDLs is 3.2 µM.

On to `COc1ccc(N(N=O)c2ccc(NC(=O)c3cncnc3)cc2)cc1` [Example 4], for which the “Nitrates + nitrites” value in experiment [1] came out at 84 µM. Moreover, the 50% inhibitory concentration (IC50) in the experiment on Human LDLs was found to be 5.4 µM.

As to `O=NN(c1ccccc1)c1ccc(NS(=O)(=O)c2cccnc2)cc1` [Example 6], in experiment [1], the “Nitrates + nitrites” value was determined as 83 µM. Also, the 50% inhibitory concentration (IC50) in the experiment on Human LDLs came to 6.5 µM.

`O=NN(c1ccccc1)c1ccc(NC(=O)Nc2ccccc2)cc1` [Example 8]: the “Nitrates + nitrites” value in experiment [1] worked out at 44 µM. The IC50 in the experiment with Human LDLs is 5.4 µM.

For the compound `COc1ccc(N(N=O)c2ccc(NC(=O)c3cccnc3)cc2)cc1` [Example 1, N-nitroso[4-methoxyphenyl][4-(3-pyridylcarbonylamino)phenyl]amine], the “Nitrates + nitrites” value in experiment [1] is 97 µM. In the experiment with Human LDLs, the IC50 was 6.4 µM.

In turn, `COc1ccc(Nc2ccc(NC(=O)OCc3ccccc3)cc2)cc1` [253 (formula II), Benzyl 4-[(4-methoxyphenyl)amino]phenylcarbamate] returned a half-maximal inhibitory concentration (IC50) in experiment [2] of 2 µM.

Consider `COc1ccc(Nc2ccc(NC(=O)c3cc([N+](=O)[O-])ccc3Oc3ccc(OC)cc3)cc2)cc1`, for which the IC50 in experiment [2] was 8.8 µM.

As for `O=S(=O)(Nc1ccc(Nc2ccccc2)cc1)c1cccc(F)c1` [T=H, X=H, A=SO2, Y=3-F—C6H4—], the IC50 in experiment [2] is 3.7 µM.

Take `COc1ccc(Nc2ccc(NS(=O)(=O)c3cccc4cccnc34)cc2)cc1`: the IC50 in experiment [2] is 8.7 µM.

As to `CC(=O)Nc1ccc(S(=O)(=O)Nc2ccc(Nc3ccccc3)cc2)cc1` [T=H, X=H, A=SO2, Y=4-CH3CONH—C6H4—], in experiment [2], the IC50 was 12.3 µM.

As to `COc1ccc(Nc2ccc(NC(=O)Cc3cc(C(C)(C)C)c(O)c(C(C)(C)C)c3)cc2)cc1`, the half-inhibitory concentration (IC50) in experiment [2] was found to be 2.8 µM.

As for `COc1ccc(Nc2ccc(NC(=O)c3cccnc3)cc2)cc1` [T=4-MeO—, X=H, A=CO, Y=3-pyridyl], the IC50 in experiment [2] was determined as 3.8 µM.

Take `COc1ccc(N(N=O)c2ccc(NC(=O)c3ccc(C#N)cc3)cc2)cc1` [Example 12]: in experiment [1], the “Nitrates + nitrites” value was 22 µM. For the same compound, the IC50 in the experiment with Human LDLs was found to be 2.2 µM.

In experiment [2], `CC(C)(C)c1cc(CC(=O)Nc2ccc(Nc3ccccc3)cc2)ccc1O` registered an IC50 of 4.8 µM.

In experiment [2], `COc1ccc(Nc2ccc(NS(=O)(=O)c3cccnc3)cc2)cc1` [T=4-Me—O—, X=H, A=SO2, Y=3-pyridyl] displayed a half-inhibitory concentration (IC50) of 7.9 µM.

Consider `O=S(=O)(Nc1ccc(Nc2ccccc2)cc1)c1cccs1` [T=H, X=H, A=SO2, Y=2-thienyl], for which the IC50 in experiment [2] came out at 3.3 µM.

For the compound `COc1ccc(Nc2ccc(NC(=O)c3ccco3)cc2)cc1` [T=4-MeO—, X=H, A=CO, Y=2-furyl], the half-maximal inhibitory concentration (IC50) in experiment [2] was 8.4 µM.

As for `COc1ccc(Nc2ccc(NC(=O)c3sc(S(C)(=O)=O)c4c3CCC=C4)cc2)cc1`, in experiment [2], the IC50 came to 7.3 µM.

As to `COc1ccc(Nc2ccc(NC(=O)c3cnc(Cl)nc3)cc2)cc1`, the IC50 in experiment [2] amounted to 2.6 µM.

In turn, `O=[N+]([O-])c1ccc(S(=O)(=O)Nc2ccc(Nc3ccccc3)cc2)cc1` [T=H, X=H, A=SO2, Y=4-NO2—C6H4] yielded a 50% inhibitory concentration (IC50) in experiment [2] of 4.3 µM.

Take `COc1ccc(N(N=O)c2ccc(NC(=O)OCc3ccccc3)cc2)cc1` [Example 253, Benzyl 4-[1-(4-methoxyphenyl)-2-oxohydrazino]phenylcarbamate]: the “Nitrates + nitrites” value in experiment [1] worked out at 45 µM. Besides, the half-maximal inhibitory concentration (IC50) in the experiment on Human LDLs was found to be 3.6 µM.

In experiment [2], `COc1ccc(Nc2ccc(NC(=O)c3cncnc3)cc2)cc1` [T=4-Me—O—, X=H, A=CO, Y=5-pyrimidyl, 4-methoxy4′-[5-pyrimidinylcarbonylamino]diphenylamine] gave an IC50 of 5.2 µM.

In the case of `COc1ccc(Nc2ccc(NC(=O)c3cc4cccc(OC)c4oc3=O)cc2)cc1`, in experiment [2], the IC50 was 8.7 µM.

Consider `COc1ccc(N(N=O)c2ccc(NC(=O)c3cccc([N+](=O)[O-])c3)cc2)cc1` [Example 18], for which, in experiment [1], the “Nitrates + nitrites” value worked out at 71 µM. Further, the IC50 with Human LDLs is 3.7 µM.

In turn, `O=S(=O)(Nc1ccc(Nc2ccccc2)cc1)c1cccnc1` [T=H, X=H, A=SO2, Y=3-pyridyl] came in with an IC50 in experiment [2] of 7.4 µM.

In the case of `O=NN(c1ccccc1)c1ccc(NC(=O)c2cccnc2)cc1` [Example 57], in experiment [1], the “Nitrates + nitrites” value came out at 109 µM. Besides, the 50% inhibitory concentration (IC50) with Human LDLs came out at 8.9 µM.

For `COc1ccc(Nc2ccc(NC(=O)c3cc(C(C)(C)C)c(O)c(C(C)(C)C)c3)cc2)cc1`, the IC50 in experiment [2] was 9.4 µM.

`CCn1nc(C)cc1C(=O)Nc1ccc(Nc2ccc(OC)cc2)cc1` showed an IC50 in experiment [2] of 8.3 µM.

Turning to `COc1ccc(Nc2ccc(NC(=O)c3ccc[n+]([O-])c3)cc2)cc1`, the midpoint of inhibition in experiment [2], the IC50, lay at 10.5 µM.

In experiment [2], `COc1ccc(Nc2ccc(NS(=O)(=O)c3ccc(OC)cc3)cc2)cc1` [T=4-MeO—, X=H, A=SO2, Y=4-MeO—C6H4—] displayed a half-maximal inhibitory concentration (IC50) of 5 µM.

With `COc1ccc(N(N=O)c2ccc(NS(=O)(=O)c3ccc(OC)cc3)cc2)cc1` [Example 86], the “Nitrates + nitrites” value in experiment [1] amounted to 79 µM. In addition, in the experiment with Human LDLs, the IC50 amounted to 3.8 µM.

`CC(=O)Nc1ccc(S(=O)(=O)Nc2ccc(Nc3ccccc3)cc2)cc1Cl` [T=H, X=H, A=SO2, Y=3-Cl,4-CH3CONH—C6H3—] displayed a half-inhibitory concentration (IC50) in experiment [2] of 13.4 µM.

In turn, `COc1ccc(Nc2ccc(NC(=O)c3cccc(C(F)(F)F)c3)cc2)cc1` [T=4-MeO—, X=H, A=CO, Y=3-CF3—C6H4—] showed an IC50 in experiment [2] of 6.4 µM.

Turning to `COc1ccc(Nc2ccc(NC(=O)c3cccnc3Oc3ccc(Cl)cc3)cc2)cc1`, in experiment [2], the half-inhibitory concentration (IC50) is 3.6 µM.

In turn, `COc1ccc(Nc2ccc(NC(=O)c3cc(Cl)cnc3Cl)cc2)cc1` gave an IC50 in experiment [2] of 5.4 µM.

With `CSc1ccc(Nc2ccc(NC(=O)c3ccccc3)cc2)cc1` [T=4-MeS—, X=H, A=CO, Y=C6H5], in experiment [2], inhibition was half-maximal at 1.8 µM (IC50).

`N#Cc1ccc(S(=O)(=O)Nc2ccc(Nc3ccccc3)cc2)cc1` [T=H, X=H, A=SO2, Y=4-CN—C6H4] registered an IC50 in experiment [2] of 11.8 µM.

Consider `O=S(=O)(/C=C/c1ccccc1)Nc1ccc(Nc2ccccc2)cc1`, for which 12.2 µM corresponded to half-maximal inhibition in experiment [2] (IC50).

Consider `COc1ccc(Nc2ccc(NC(=O)c3cccc([N+](=O)[O-])c3)cc2)cc1` [T=4-Me—O—, X=H, A=CO, Y=3-NO2—C6H4—], for which half-maximal inhibition in experiment [2] (IC50) required 6.5 µM.

`CCCCCCc1ccc(C(=O)Nc2ccc(Nc3ccc(OC)cc3)cc2)s1` registered a concentration for half-maximal inhibition (IC50) in experiment [2] of 11.1 µM.

Compound `COc1ccc(Nc2ccc(NC(=O)/C=C/c3ccccc3[N+](=O)[O-])cc2)cc1` registered an IC50 in experiment [2] of 13.3 µM.

In experiment [2], `COc1ccc(Nc2ccc(NC(=O)c3ccc(N(C)C)cc3)cc2)cc1` [T=4-MeO—, X=H, A=CO, Y=4-(CH3)2N—C6H4—] returned a half-inhibitory concentration (IC50) of 11.2 µM.
